Tests used:
[1] = Blood cell count in tumor bearing mice; format: in vivo, mouse; conditions: 3 times/week, 8 weeks
Protocol: Figure 8 HB-19 inhibits tumor growth in the nude mice. (A) HB-19 inhibits the growth of MDA-MB-231 tumor-cell xenografts. Cells (2×10^6) were injected subcutaneously into the right flank of female nude mice. Two weeks later, mice with a palpable tumor of approximately 40 mm^3 in volume were randomly separated into three groups (n = 5) and were given peritumoral injections 3 times/week of 0.1 ml PBS alone (Control), HB-19 (5 mg/kg), or Tamoxifen (Tmx) 10 mg/kg) for 6 weeks. (B) HB-19 inhibits the growth of MDA-MB-435 tumor-cell xenografts. Cells (1×10^6) were injected in the mammary fat pad of female nude mice. Two weeks later, mice with a palpable tumor were randomly separated into three groups (n = 10) and were given intraperitoneal injections 3 times/week of 0.1 ml PBS alone (Control), HB-19 (5 mg/kg), or 5-fluouracil (5-FU, 40 mg/kg) for 8 weeks. At the end of each experiment (in A and B), mice were sacrificed and the tumors were excised and weighed. The results are presented as the mean weight ±standard deviation (±S.D.) obtained from the number of mice in each group. (C, D) Inhibition of tumor development in mice treated by intraperitoneal (i.p.) and subcutaneous (s.c.) administration of HB-19. MDA-MB-231 tumor bearing mice in three groups (n = 10) were treated with HB-19 (10 mg/kg) by i.p. or s.c. injections, 3 times/week for 28 days. […] Statistical significance: *p<0.05, **p<0.01, ***p<0.001.
Blood samples were collected by cardiac puncture. Hematocrit level, white blood cells and platelets count were determined individually in whole blood anticoagulated with EDTA (1 mM) at room temperature. Blood cell count was analyzed with an automated flow cytometric blood cell counter (Cell-Dyn 3500, Abbott Laboratories, Rungis, France).

B16 cells = experiment: Colony formation in soft agar, B16; format: cell-based, mouse; conditions: 5 µM HB-19, B16
Protocol: Figure 4 HB-19 inhibits colony formation in soft agar by tumor cell lines. (A) MDA-MB-231 cells in culture medium were seeded in triplicate in the absence (histogram C) or presence of 0.1, 0.5 and 1 of µM HB-19, or 0.1 µM of the anti-nucleolin mAb MS-3 or control IgG, or 10 µM bisphosphonate (BisP). (B) Various tumor cell lines (as indicated) in culture medium were seeded in triplicate in the absence (histogram Control) or presence of 5 µM HB-19. After 10–21 days, colonies with diameters greater than 50 µm were scored as positive. Statistical significance: *0.01<p<[…], **p<0.01, ***p<0.001.
Carcinoma cells (2×10^4) were mixed in 0.35% top agar, diluted in complete medium (DMEM containing 10% FBS) in the absence or presence of HB-19, and plated onto 0.8% bottom agar into 12-well plates. Cells were treated twice a week during 10 to 21 days. Colonies with diameters greater than 50 µm were scored as positive using a phase contrast microscope equipped with a measuring grid at magnification 100× [45]. The number of colonies was determined by analyzing 5 fields/well from 3 wells and the test was repeated at least twice.

HUVECs = experiment: HUVEC migration assay (modified Boyden chamber); format: cell-based, human; conditions: VEGF165; 1 µM HB-19 or 0.1 µM mAb MS-3; 4 h, 37°C; two independent experiments
Protocol: Figure 6 Inhibition of in vitro and in vivo angiogenesis by HB-19. (A) HB-19 inhibits proliferation of HUVECs. Twenty-four hours after seeding HUVECs in 2% FBS, cells were stimulated by 0.25 nM VEGF165, in the absence or presence of 1 µM HB-19 or 0.1 µM anti-nucleolin mAb MS-3 as indicated. After 72 h, cell number was determined by crystal violet staining. The data are reported as the mean of triplicate samples. (B) HB-19 inhibits migration of HUVECs. Cell migration was studied using a modified Boyden chamber. Cells were incubated (4 h at 37°C) with VEGF165, HB-19, or anti-nucleolin mAb MS-3 as above. Cells that migrated through the pore to the lower filter surface were counted and are shown as number per microscopic field at ×100 magnification. […] Tubular network structures were quantified using phase contrast microscopy (×100). […] Quantification of endothelial cell invasion into the Matrigel was determined and is expressed as a mean of five fields per section from 3 Matrigel-plug sections per mouse. The results are expressed as the mean of five mice per group. […]
HUVEC migration assays were performed using a 24-well chemotaxis chamber (Transwell, Corning Costar, France). […] The cells that had migrated through the pores to the lower filter surface were counted in three random high power fields in each well (magnification 100×). […]

tumor cells = experiment: Apoptosis in HB-19 treated cells; format: cell-based; conditions: not shown

## pseudo-tripeptide Lysψ(CH2N)-Pro-Arg coupled to a template (H2NLys-Lys-Lys-Gly-Pro-Lys-Glu-Lys-AhxCONH2) [HB-19, pseudopeptide presenting pentavalently the pseudo-tripeptide Lysψ(CH2N)-Pro-Arg coupled to a template]
[1]; HB-19 5 mg/kg or 5-FU 40 mg/kg i.p., mean ± SD, n = 10, untreated 0.01±0.02
  Eosinophils: 0.03±0.04 ×10^3/µl
[1]; HB-19 5 mg/kg or 5-FU 40 mg/kg i.p., mean ± SD, n = 10, untreated 0.10±0.06
  Basophils: 0.09±0.04 ×10^3/µl
[1]; HB-19 5 mg/kg or 5-FU 40 mg/kg i.p., mean ± SD, n = 10, untreated 0.20±0.09
  Monocytes: 0.23±0.07 ×10^3/µl
[1]; HB-19 5 mg/kg or 5-FU 40 mg/kg i.p., mean ± SD, n = 10, untreated 0.89±0.39, 5-FU p<0.05
  Neutrophils: 1.03±0.44 ×10^3/µl
[1]; HB-19 5 mg/kg or 5-FU 40 mg/kg i.p., mean ± SD, n = 10, untreated 1.84±0.78, 5-FU p<0.01
  Lymphocytes: 1.98±1.01 ×10^3/µl
[1]; HB-19 5 mg/kg or 5-FU 40 mg/kg i.p., mean ± SD, n = 10, untreated 3.05±1.29, 5-FU p<0.05
  Leukocytes: 3.36±1.28 ×10^3/µl
[1]; HB-19 5 mg/kg or 5-FU 40 mg/kg i.p., mean ± SD, n = 10, untreated 8.73±0.26, 5-FU p<0.0001
  Erythrocytes: 8.31±1.05 ×10^6/µl
[1]; HB-19 5 mg/kg or 5-FU 40 mg/kg i.p., mean ± SD, n = 10, untreated 1041±91
  Platelets: 1037± 225 ×10^3/µl
[1]; HB-19 5 mg/kg, intraperitoneal
  effect on number of platelets, erythrocytes and leukocytes: no effect on the number of platelets, erythrocytes, and leukocytes
B16 cells
  colony formation: reduced markedly
HUVECs
  inhibition of HUVEC migration: inhibited dramatically both of these events down to levels comparable to that of unstimulated cells
Tumor cells
  apoptosis: not observed

Source: publication PMC2424174, “Suppression of Tumor Growth and Angiogenesis by a Specific Antagonist of the Cell-Surface Expressed Nucleolin” (PLoS ONE, 2008)
